Columns and labels:
[1] = tested on: PGC-1α; test: PGC-1α levels in SH-SY5Y cells by immunoblot; type: cell-based; details: SH-SY5Y cells
Description: The 9 compounds that activate the PGC-1α promoter in the presence of PARIS were evaluated to determine which compounds induce PGC-1α levels in SH-SY5Y cells (FIGS. 2A and 2B). […] The mRNA level of PGC-1α target genes including copper/zinc superoxide dismutase (SOD1), manganese SOD (SOD2), glutathione peroxidase (GPx1), catalase (CAT), nuclear respiratory factor-1 (NRF-1), mitochondrial transcription factor A (TFAM), mitochondrial uncoupling proteins (UCP2 and UCP3), and the oxidative phosphorylation regulators, ATP5b, cytochrome C (CytC) and cytochrome C oxidase (COX II and IV) were determined by real-time quantitative RT-PCR (qRT-PCR) (FIG. 2C).
(§1) Geraniol or geranylgeraniol have no effect on PGC-1α levels (FIG. 3H).

[2] = tested on: PGC-1α; test: PGC-1α level in brain regions of farnesol-fed mice; type: in vivo; details: farnesol-fed mice versus normal mouse chow
Description: (§2) Farnesol is a natural organic compound in both plants and animals. Phosphate derivatives of farnesol are the building blocks of cholesterol in mammalian cells. […] The level of PGC-1α was measured from different brain regions in farnesol-fed mice. PGC-1α levels increase 2.7-fold in the olfactory bulb (OB), 1.6-fold in hippocampus (HIP), and 1.7-fold in substantia nigra (SN) as compared to that of mice on normal mouse chow (FIGS. 2H and 2I). […] In addition, mRNA levels of PGC-1α and a variety of PGC-1α's target genes in the STR, HIP, and SN of farnesol-fed mice were measured.

[3] = tested on: PGC-1α and PGC-1α's target genes; test: mRNA of PGC-1α and target genes in STR, HIP and SN of farnesol-fed mice; type: in vivo
Description: as §2

[4] = tested on: PPARα and PPARγ; test: PPARα and PPARγ levels, target genes and PPAR responsive element in SH-SY5Y cells; type: cell-based
[5] = tested on: PPARα and PPARγ; test: PPARα and PPARγ levels and target gene mRNA in farnesol fed mice; type: in vivo
[6] = tested on: PARIS; test: PARIS farnesylation in SH-SY5Y cells transfected with Flag-tagged PARIS (immunoprecipitation); type: cell-based
Description: as §1
(§3) To confirm that farnesylation of PARIS requires FTase, siRNA-FTase α knockdown or FTI-277 inhibition of FTase in the setting of PARIS overexpression was performed (FIG. 4C). […] To ascertain whether the farnesylation of PARIS affects the DNA binding activity of PARIS on the IRS motif of the PGC-1α promoter, a chromatin immunoprecipitation assay (ChIP) was performed from SH-SY5Y transfected with GFP-tagged PARIS WT or GFP-tagged PARIS C631S. […] To examine the possibility that the farnesylation of PARIS alters its subcellular distribution, subcellular fractionation was used to monitor the levels of PARIS in cytosolic, membrane, soluble nuclear, and chromatin-bound nuclear fractions by immunoblot analysis (FIG. 4F).

[7] = tested on: PARIS; test: Subcellular fractionation of PARIS by immunoblot; type: cell-based
Description: as §3

[8] = tested on: PGC-1α promoter; test: PGC-1α promoter activity with PARIS WT or PARIS C631S mutant; type: cell-based; details: PARIS WT; not observed with PARIS C631S mutant
[9] = tested on: cPK-KO mice; test: Conditional adult parkin knockout (cPK-KO) mice; type: in vivo
Source text: In this setting, the level of farnesylated PARIS was monitored in the SN of cPK-KO mice fed with either chow diet or farnesol diet.
To generate Cre-flox conditional model of parkin knock out, an adeno-associated vector expressing GFP fused Cre recombinase (AAV-GFPCre) was stereotaxically introduced into the SN of exon 7 floxed parkin mice (parkin^Flox/Flox).

[10] = molecular target: T1, PPARα (Homo sapiens, UniProt Q07869); details: cited from earlier work
T1 sequence (Q07869 1-468): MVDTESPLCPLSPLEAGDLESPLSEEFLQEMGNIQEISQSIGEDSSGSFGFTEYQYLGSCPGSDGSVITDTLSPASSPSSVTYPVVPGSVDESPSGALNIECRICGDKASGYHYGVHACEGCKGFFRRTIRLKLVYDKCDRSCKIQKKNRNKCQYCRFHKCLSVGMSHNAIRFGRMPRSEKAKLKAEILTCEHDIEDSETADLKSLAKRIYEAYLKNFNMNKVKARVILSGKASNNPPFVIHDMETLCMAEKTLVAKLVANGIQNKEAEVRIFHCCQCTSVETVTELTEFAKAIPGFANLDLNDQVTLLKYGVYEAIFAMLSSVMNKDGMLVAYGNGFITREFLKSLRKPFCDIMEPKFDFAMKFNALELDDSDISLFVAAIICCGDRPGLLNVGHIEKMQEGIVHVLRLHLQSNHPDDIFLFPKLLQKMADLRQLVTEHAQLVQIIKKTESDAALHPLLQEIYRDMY

[11] = dietary farnesol in rats; cited from earlier work
[12] = farnesol fed versus normal chow fed mice
[13] = SH-SY5Y, Flag-tagged PARIS, farnesol treatment 48 hours

## CC(C)=CCC/C(C)=C/CC/C(C)=C/CO [farnesol, (2E,6E)-3,7,11-trimethyldodeca-2,6,10-trien-1-ol]
[1]
  PGC-1α level by immunoblot analysis: significantly increased
[2]
  PGC-1α level increase, hippocampus (HIP): 1.6 fold
  PGC-1α level increase, olfactory bulb (OB): 2.7 fold
  PGC-1α level increase, substantia nigra (SN): 1.7 fold
  PGC-1α levels in cerebellum (CBM), brain stem (BS), striatum (STR), frontal cortex (CTX): No significant change
[3]; farnesol fed mice, SN, HIP, STR
  mRNA levels of SOD2, TFAM, UCP2, and CYTC: exclusively increased in SN, but not in the HIP and STR
[3]; [12]
  mRNA level of PGC-1α in HIP, SN and STR: significantly upregulated in the HIP and SN, but not in the STR
  mRNA levels of NRF-1, COX II, and COX IV: upregulated in both HIP and SN
[4]
  activation of a PPAR responsive element: fails to activate
  levels of PPARα and PPARγ protein and mRNA and target genes ACOX1, CPT-1A, MCAD, LCAD: fails to influence
[5]; SN of farnesol fed mice
  mRNA levels of MCAD: increases
  mRNA levels of PPARγ and ACOX1: decreases
[5]; farnesol fed mice
  PGC-1α and NRF-1 levels: increase
  levels of PPARα and PPARγ: no alteration
[6]; PARIS C631S mutant
  restoration of PGC-1α levels with PARIS C631S mutant: no effect
[6]; PARIS C631S mutant, in the presence of farnesol
  farnesylation of FLAG-PARIS C631S mutant: no farnesylation
[6]; PARIS WT
  PGC-1α level with PARIS WT: upregulation of PGC-1α
[6]; PARIS WT, farnesol treatment
  farnesylation of FLAG-PARIS WT: farnesylation is increased
[6]; [13]
  PARIS farnesylation: increases PARIS farnesylation in a dose-dependent manner
  PGC-1α accompanying PARIS farnesylation: increase in PGC-1α
[7]
  distribution of PARIS in cytoplasmic, membrane, and soluble nuclear fractions: no change
[7]; PARIS WT or C631S
  level of chromatin-bound PARIS: abolished the level of chromatin-bound PARIS WT but not PARIS C631S
[8]
  PGC-1α promoter activity: increase of PGC-1α promoter activity
[9]; SN of cPK-KO mice, farnesol diet
  farnesylation of PARIS: enhanced farnesylation of PARIS
[9]; cPK-KO mice, farnesol diet
  decrements of PGC-1α and NRF-1 levels in the SN: prevents the decrements of PGC-1α and NRF-1 levels
[9]; cPK-KO, farnesol diet from 7 days prior to viral injection
  loss of dopamine neurons in the SN: completely and significantly prevents the loss of dopamine neurons
[9]; control mice, farnesol diet
  PGC-1α and NRF-1 levels in the SN of control mice: increases PGC-1α and NRF-1 levels
[9]; farnesol-fed versus normal chow-fed mice
  mRNA of PGC-1α, NRF-1, SOD2, TFAM, UCP2, CytC, COX II and COX 1 in the SN: upregulation
[10]
  activation of PPARα in vitro: capable of activating
[11]
  level of serum triglycerides, cholesterol: lowers
